Patent US10190104B2, “Isoform of anaplastic lymphoma kinase and its uses” (Memorial Sloan-Kettering Cancer Center, priority 2014, dated 2019)

Tested on: ALK-transformed Ba/F3 cells
Assay: Cell viability assay of Ba/F3 cells expressing ALK isoforms treated with ALK inhibitors
Assay type: cell-based, murine
Conditions: cell viability after 72 hours; for IL-3-independent growth of ALK-transformed Ba/F3 cells: absence of IL-3, CellTiter-Glo; for growth in the presence of IL-3: presence of IL-3 (1 ng/ml)
Protocol: Ba/F3 cells were stably transduced with MSCV-ALK^variant-IRES-GFP constructs with a multiplicity of infection (MOI) of ˜0.26. Based on the MOI calculations, ˜78% of cells were uninfected, ˜20% of cells were infected with one virus particle, and ˜2% of cells were infected by more than one viral particle. Stably transduced Ba/F3 cells were cultured in RPMI medium supplemented with IL-3 (1 ng ml-1) and the transduction rate of 20% was validated using flow cytometry for GFP, that was co-expressed with the ALK variants. For the cell proliferation assay, transduced Ba/F3 cells were transferred into IL-3 depleted RPMI medium and cell growth was quantified every 2-4 days with a luminescence assay (#G7571, Promega). […] All drugs were suspended in DMSO. The cell viability was assessed after 72 hours by a luminescence assay CellTiter-Glo (#G7571, Promega). Results were normalized to growth of cells in a medium containing an equivalent volume of DMSO. The inhibition curve was determined with GraphPad Prism 6.0 software using the ‘log(inhibitor) vs. response variable slope’ non-linear regression model.

Compound | IL-3-independent growth of ALK-transformed Ba/F3 cells | growth in the presence of IL-3
COc1cc(N2CCC(N3CCN(C)CC3)CC2)ccc1Nc1ncc(Cl)c(Nc2ccccc2S(=O)(=O)C(C)C)n1 [TAE-684, NVP-TAE684] | effectively inhibited | no effect
Cc1cc(Nc2ncc(Cl)c(Nc3ccccc3S(=O)(=O)C(C)C)n2)c(OC(C)C)cc1C1CCNCC1 [ceritinib] | effectively inhibited | no effect
